Source: the supplement of paper PMC11451515

Columns and labels:
Experiment in all cases: AUC of viability dose-response curve (% viability x log10 dose units); higher = less sensitive
Conditions in all cases: 48 h
NOMO1 = system: NOMO1
Outline: (§1)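 Leukemia cells adapted to each medium were seeded in 1536-well plates (500 or 1000 cells/well) and given library compounds in DMSO for 48 h at 37°C. The 11 threefold doses spanned 47 μM to 0.79 nM, and CellTiter-Glo One luminescence was normalised per plate to DMSO and cell-free wells before four-parameter log-logistic fitting on log10 dose. Area under the curve was integrated with the trapezoidal rule, scaling curves above full viability and removing curves that failed quality control.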

SEM cells = system: SEM cells
Outline: as §1

P12-Ichikawa = system: P12-Ichikawa
Outline: as §1

[1] = RPMI 5 mM glucose + 10% dialyzed FBS

| SMILES | AUC of viability dose-response curve (NOMO1; HPLM + 10% dialyzed FBS) | AUC of viability dose-response curve (NOMO1; RPMI 5 mM glucose + 10% FBS) | AUC of viability dose-response curve (NOMO1; [1]) | AUC of viability dose-response curve (SEM cells; HPLM + 10% dialyzed FBS) | AUC of viability dose-response curve (SEM cells; RPMI 5 mM glucose + 10% FBS) | AUC of viability dose-response curve (SEM cells; [1]) | AUC of viability dose-response curve (P12-Ichikawa; HPLM + 10% dialyzed FBS) | AUC of viability dose-response curve (P12-Ichikawa; RPMI 5 mM glucose + 10% FBS) | AUC of viability dose-response curve (P12-Ichikawa; [1]) |
| --- | --- | --- | --- | --- | --- | --- | --- | --- | --- |
| Cc1csc(NC(=O)c2sc3nc4c(c(C(F)(F)F)c3c2N)CCC4)n1 | 449 | 419 | 441 | 429 | 442 | 420 | 444 | 433 | 394 |
| CNC[C@H](O)c1cccc(O)c1 |  |  |  | 410 | 388 | 417 |  |  |  |
| O=C(c1ccc(F)c(F)c1Nc1ccc(I)cc1F)N1CC(O)([C@@H]2CCCCN2)C1 | 305 | 292 | 304 | 410 | 434 | 425 | 410 | 403 | 419 |
| COc1ccc2c(c1)c(CC(=O)OCC(=O)O)c(C)n2C(=O)c1ccc(Cl)cc1 | 468 | 439 | 463 | 470 | 432 | 454 | 458 | 436 | 450 |
| CN1CCC[C@@H]1CCO[C@](C)(c1ccccc1)c1ccc(Cl)cc1 | 466 | 461 | 473 | 469 | 472 | 471 | 463 | 467 | 474 |
| COc1ccc(Nc2nccc(NCCO)n2)cc1 |  |  |  | 331 | 376 | 375 | 395 | 386 | 377 |
| COC1=CC=CC(=C1N)\C2=C\C(=O)C3=C(O2)C=CC=C3 | 464 | 466 | 463 | 432 | 428 | 419 | 469 | 459 | 465 |
| CN(C)CC[C@H](c1ccc(Cl)cc1)c1ccccn1 | 378 | 382 | 412 | 376 | 438 | 414 | 413 | 388 | 379 |
| Cc1cc(Nc2nc(N[C@@H](C)c3ccc(F)cc3)c(C#N)cc2F)n[nH]1 | 414 | 362 | 394 | 367 | 368 | 364 | 396 | 399 | 393 |
| CCCCC(C=O)NC(=O)C(CC(C)C)NC(=O)OCc1ccccc1 (stereo not drawn) | 409 | 410 | 424 | 430 | 439 | 393 | 422 | 393 | 377 |
| CC[C@@]1(O)C(=O)OCC/2=C1/C=C3\N(CC4=CC5=CC(=CC=C5N=C34)O)C2=O | 251 | 261 | 271 |  |  |  | 180 | 176 | 181 |
| CN(C)c1nc(Cc2ccc(NC(=O)c3ccc4ccccc4c3)cc2)nc(Cl)c1CC(=O)O | 377 | 401 | 392 | 461 | 447 | 455 | 440 | 427 | 434 |
| CC1(N2CCC(n3c([C@@H]4CCCNC4)nc4ccccc43)CC2)CCCCCCC1 | 420 | 460 | 433 | 430 | 467 | 471 | 456 | 458 | 456 |
| O=C(Nc1ncc(-c2cc(C(F)F)nn2-c2c(Cl)cccc2Cl)s1)C1CC1 | 398 | 381 | 370 | 347 | 333 | 340 | 329 | 326 | 345 |
| C[C@]12CC[C@@H]3c4ccc(O)cc4CC[C@H]3[C@@H]1C[C@@H](O)[C@@H]2O | 436 | 463 | 447 | 468 | 419 | 454 | 466 | 468 | 466 |
| OC(=O)C(CC/1=C/C(=O)NC2=CC=CC=C12)NC(=O)C3=CC=C(Cl)C=C3 (stereo not drawn) | 469 | 454 | 469 | 447 | 467 | 470 | 468 | 436 | 465 |
| Nc1cccc2c1CN([C@H]1CCC(=O)NC1=O)C2=O | 462 | 428 | 466 | 427 | 390 | 450 | 451 | 448 | 449 |
| COc1ccc2[nH]c([S+]([O-])Cc3ncc(C)c(OC)c3C)nc2c1 (stereo not drawn) | 411 | 434 | 418 | 354 | 411 | 392 | 427 | 398 | 363 |
| O=C(Oc1ccc([N+](=O)[O-])cc1)N1CCC(C(O)(c2ccc3c(c2)OCO3)c2ccc3c(c2)OCO3)CC1 |  |  |  | 396 | 379 | 418 | 439 | 432 | 411 |
| CN1CCN2c3ncccc3Cc3ccccc3C2C1 (stereo not drawn) |  |  |  |  |  |  | 470 | 460 | 463 |
| CC1(C)CNc2cc(NC(=O)c3cccnc3NCc3ccncc3)ccc21 | 419 | 468 | 470 |  |  |  | 461 | 446 | 455 |
| CC(C)c1cc(C(=O)N2Cc3ccc(CN4CCN(C)CC4)cc3C2)c(O)cc1O | 320 | 317 | 323 |  |  |  | 374 | 342 | 348 |
| CN1\C(=C(\O)C2=C(C=CC=C2)[S+]1([O-])=O)C(=O)NC3=CC=CC=N3 | 422 | 428 | 461 |  |  |  | 397 | 400 | 425 |
| COc1cc2c(Nc3ccc(Br)cc3F)ncnc2cc1OCC1CCN(C)CC1 | 373 | 373 | 380 |  |  |  | 419 | 396 | 398 |
| CC(C)C[C@H](NC(=O)CNC(=O)c1cc(Cl)ccc1Cl)B(O)O |  |  |  | 190 | 190 | 177 |  |  |  |
| COC/1=C/C=C2\C(=C/C1=O)[C@H](CCC3=CC(=C(OC)C(=C23)OC)OC)NC(C)=O |  |  |  | 80.3 | 49.8 | 54.6 | 54.5 | 46.5 | 64.7 |
| O=C\1N(N\C=C1[N]2C=CN=N2)C3=NC=NC(=C3)N4CCOCC4 | 221 | 210 | 222 |  |  |  | 211 | 225 | 248 |
